ChEMBL document CHEMBL4138075, “Concise synthesis and antiproliferative activity evaluation of ellipticine quinone and its analogs” (Eur J Med Chem, 2017)

Legend:
HCT-116 = experiment: Antiproliferative activity against human HCT116 cells measured after 48 hrs by MTT assay; format: functional, cell-based; settings: HCT-116, 48 h
HL-60 = experiment: Antiproliferative activity against human HL60 cells measured after 48 hrs by WST1 assay; format: functional, cell-based; settings: HL-60, 48 h

Row | Compound | IC50 (HCT-116) | IC50 (HL-60)
1 | COc1cc2[nH]c3c(c2cc1OC)C(=O)c1cnccc1C3=O | 3.72 µM | 7.49 µM
2 | O=C1c2ccncc2C(=O)c2c1[nH]c1cc([N+](=O)[O-])ccc21 | 1.25 µM | 4.43 µM
3 | O=C1c2ccncc2C(=O)c2c1[nH]c1ccc(C(F)(F)F)cc21 | 1.64 µM | 5.08 µM
4 | O=C1c2ccncc2C(=O)c2c1[nH]c1cc(C(F)(F)F)ccc21 | 4.62 µM | > 10 µM
5 | O=C1c2ccncc2C(=O)c2c1[nH]c1cc(Cl)ccc21 | 4.07 µM | > 10 µM
6 | O=C1c2ccncc2C(=O)c2c1[nH]c1cc(F)ccc21 | 1.6 µM | 4.5 µM
7 | O=C1c2ccncc2C(=O)c2c1[nH]c1ccc([N+](=O)[O-])cc21 | 0.187 µM | 1.35 µM
8 | O=C1c2ccncc2C(=O)c2c1[nH]c1ccccc21 | 0.877 µM | 3.29 µM
9 | Cc1ccc2[nH]c3c(c2c1)C(=O)c1cnccc1C3=O | 0.849 µM | 4.27 µM
10 | O=C1c2ccncc2C(=O)c2c1[nH]c1ccc(Cl)cc21 | 1.38 µM | 3.88 µM
11 | O=C1c2ccncc2C(=O)c2c1[nH]c1ccc(F)cc21 | 1.13 µM | 4.5 µM
12 | CC[C@@]1(O)C(=O)OCc2c1cc1n(c2=O)Cc2cc3ccccc3nc2-1 [CAMPTOTHECIN] | 0.159 µM | 0.019 µM
13 | COc1ccc2[nH]c3c(c2c1)C(=O)c1cnccc1C3=O | 5.43 µM | > 10 µM
14 | COc1ccc2c3c([nH]c2c1)C(=O)c1ccncc1C3=O | 3.14 µM | 9.01 µM
15 | Cc1ccc2c3c([nH]c2c1)C(=O)c1ccncc1C3=O | 5.79 µM | > 10 µM
